Reference: patent publication US6756382B2, “Amide substituted imidazoquinolines” (3M Innovative Properties Company, priority 1999, dated 2004)
Where a name gives a salt, the structure may show the parent alone.

Experiments:
[1] = tested on: tumor necrosis factor (α); experiment: Cytokine induction in human cells: tumor necrosis factor (α) secreted by PBMCs, ELISA; assay type: cell-based; details: PBMC, incubated 18 to 24 hours, TNF determined by ELISA, read-out: Lowest Effective Concentration (μM) Tumor Necrosis Factor
Description: (§1) An in vitro human blood cell system was used to assess cytokine induction by compounds of the invention. Activity is based on the measurement of interferon and tumor necrosis factor (α) (IFN and TNF, respectively) secreted into culture media as described by Testerman et. al. In “Cytokine Induction by the Immunomodulators Imiquimod and S-27609”, Journal of Leukocyte Biology, 58, 365-372 (September, 1995).
(§2) Whole blood is collected by venipuncture into EDTA vacutainer tubes from healthy human donors. Peripheral blood mononuclear cells (PBMCs) are separated from whole blood by density gradient centrifugation using Histopaque®-1077 (Sigma Chemicals, St. Louis, Mo.). The PBMCs are suspended at 3-4×10^6 cells/mL in RPMI 1640 medium containing 10% fetal bovine serum, 2 mM L-glutamine and 1% penicillin/streptomycin solution (RPMI complete). The PBMC suspension is added to 48 well flat bottom sterile tissue culture plates (Costar, Cambridge, Mass. or Becton Dickinson Labware, Lincoln Park, N.J.) containing an equal volume of RPMI complete media containing test compound.
(§3) The compounds are solubilized in dimethyl sulfoxide (DMSO). The DMSO concentration should not exceed a final concentration of 1% for addition to the culture wells.
(§4) The solution of test compound is added at 60 μM to the first well containing RPMI complete and serial (three fold or ten fold) dilutions are made. The PBMC suspension is then added to the wells in an equal volume, bringing the test compound concentrations to the desired range. The final concentration of PBMC suspension is 1.5-2×10^6 cells/mL. The plates are covered with sterile plastic lids, mixed gently and then incubated for 18 to 24 hours at 37° C. in a 5% carbon dioxide atmosphere.
(§5) Following incubation the plates are centrifuged for 5-10 minutes at 1000 rpm (˜200×g) at 4° C. The cell culture supernatant is removed with a sterile polypropylene pipet and transferred to sterile polypropylene tubes. Samples are maintained at −30 to −70° C. until analysis. The samples are analyzed for interferon (α) by either ELISA or bioassay and for tumor necrosis factor (α) by ELISA.
Tumor necrosis factor (α) (TNF)concentration is determined using ELISA kits available from Genzyme, Cambridge, Mass.; R&D Systems, Minneapolis, Minn.; or Pharmingen, San Diego, Calif.
(§6) The table below lists the lowest concentration found to induce interferon and the lowest concentration found to induce tumor necrosis factor for each compound. […] Unless otherwise indicated, the interferon biosynthesis was determined by ELISA.

interferon (α) = experiment: Cytokine induction in human cells: interferon secreted by PBMCs, ELISA; assay type: cell-based; details: PBMC, incubated 18 to 24 hours, interferon determined by ELISA, read-out: Lowest Effective Concentration (μM) Interferon
Description: as §1, §2, §3, §4, §5
Interferon (α) concentration is determined by ELISA using a Human Multi-Species kit from PBL Biomedical Laboratories, New Brunswick, N.J.
as §6

Compound | melting point | minimal effective concentration [1] | minimal effective concentration (interferon (α))
CCCCc1ccc(C(=O)NCCCCn2c(CCOC)nc3c(N)nc4ccccc4c32)nc1 [Example 58, N^2-{4-[4-Amino-2-(2-methoxyethyl)-1H-imidazo[4,5-c]quinolin-1-yl]butyl}-5-butyl-2-pyridinecarboxamide] | 54.9 to 55.2 °C | – | –
Nc1nc2ccccc2c2c1nc(-c1ccccc1)n2CCCCNC(=O)c1ccc2ccccc2n1 [Example 67, N^2-[4-(4-Amino-2-phenyl-1H-imidazo[4,5-c]quinolin-1-yl)butyl]-2-quinolinecarboxamide] | 81.1 to 83.9 °C | – | –
Nc1nc2ccccc2c2c1ncn2CCCCNC(=O)c1ccncc1 [Example 48, N^4-[4-(4-Amino-1H-imidazo[4,5-c]quinolin-1-yl)butyl]isonicotinamide] | 213 to 213.7 °C | – | –
COCCc1nc2c(N)nc3ccccc3c2n1CCCCNC(=O)c1cc(-c2ccccc2)nc2ccccc12 [Example 50, N^4-[4-(4-Amino-2-(2-methoxyethyl)-1H-imidazo[4,5-c]quinolin-1-yl)butyl]-2-phenyl-4-quinolinecarboxamide] | 118 °C (dec.) | – | –
Nc1nc2ccccc2c2c1ncn2CCCCCNC(=O)c1ccccc1 [Example 10, N^1-[5-(4-Amino-1H-imidazo[4,5-c]quinolin-1-yl)pentyl]benzamide Hydrochloride] | – | > 30 µM | 3.33 µM
COCCc1nc2c(N)nc3ccccc3c2n1CCCCNC(=O)C1CCCC1 [Example 149] | – | 1 µM | 0.001 µM
C=CCCCCCCCCC(=O)NCCCCn1cnc2c(N)nc3ccccc3c21 [Example 92] | – | > 30 µM | 3.33 µM
CC(=O)N(CCCCn1cnc2c(N)nc3ccccc3c21)Cc1ccncc1 [Example 143] | – | > 30 µM | 0.12 µM
COCCc1nc2c(N)nc3ccccc3c2n1CCCCNC(=O)C1CCCCC1 [Example 150] | – | 0.1 µM | 0.001 µM
Nc1nc2ccccc2c2c1ncn2CCCCNC(=O)CC(c1ccccc1)c1ccccc1 [Example 109] | – | > 30 µM | > 30 µM
CC(=O)N(CCCCn1cnc2c(N)nc3ccccc3c21)Cc1ccccc1Sc1ccc(Cl)cc1 [Example 127] | – | > 30 µM | > 30 µM
CC(=O)N(CCCCn1cnc2c(N)nc3ccccc3c21)Cc1cccc2ccccc12 [Example 138] | – | > 30 µM | 1.11 µM
Nc1nc2ccccc2c2c1ncn2CCCCCCCCNC(=O)c1ccccc1 [Example 191, N-[8-(4-amino-1H-imidazo[4,5-c]quinolin-1-yl)octyl]benzamide] | – | > 30 µM | > 30 µM
COc1cccc(CN(CCCCn2cnc3c(N)nc4ccccc4c32)C(C)=O)c1OC [Example 131] | – | > 30 µM | 3.33 µM
COc1ccc2ccccc2c1CN(CCCCn1cnc2c(N)nc3ccccc3c21)C(C)=O [Example 139] | – | > 30 µM | > 30 µM
Nc1nc2ccccc2c2c1ncn2CCCCNC(=O)CC1C=CCC1 (stereo not drawn) [Example 110] | – | 3.33 µM | 1.11 µM
COC(=O)CCC(=O)NCCCCn1cnc2c(N)nc3ccccc3c21 [Example 113] | – | > 30 µM | 3.33 µM
CC(=O)N(CCCCn1cnc2c(N)nc3ccccc3c21)Cc1ccccc1[N+](=O)[O-] [Example 141] | – | > 30 µM | 0.37 µM
CC(=O)N(CCCCn1cnc2c(N)nc3ccccc3c21)Cc1ccc(F)c(F)c1 [Example 129] | – | > 30 µM | 3.33 µM
Nc1nc2ccccc2c2c1ncn2CCCCNC(=O)C12CC3CC(CC(C3)C1)C2 [Example 90] | – | 10 µM | 3.33 µM
CCOCc1nc2c(N)nc3ccccc3c2n1CCNC(=O)CCCCC1SCC2NC(=O)NC21 (stereo not drawn) [Example 29, N^1-[2-(4-Amino-2-(ethoxymethyl)-1H-imidazo[4,5-c]quinolin-1-yl)ethyl]-5-(2-oxoperhydrothieno[3,4-d]imidazol-4-yl)pentanamide Ditrifluoroacetate] | – | > 30 µM | 0.12 µM

Compound | melting point | minimal effective concentration [1] | minimal effective concentration (interferon (α))
Nc1nc2ccccc2c2c1ncn2CCCCNC(=O)Cc1cccs1 [Example 108, N^1-(4-(4-Amino-1H-imidazo[4,5-c]quinolin-1-yl)butyl)-2-(2-thienyl)acetamide] | – | 10 µM | 0.12 µM
Nc1nc2ccccc2c2c1ncn2CCCCNC(=O)c1ccc(CNCc2ccncc2)cc1 [Example 105] | – | 10 µM | 0.12 µM
COc1cc(C(=O)NCCCCn2cnc3c(N)nc4ccccc4c32)cc(OC)c1OC [Example 93] | – | 30 µM | 1.11 µM
Nc1nc2ccccc2c2c1ncn2CCCCNC(=O)c1cccc2ccccc12 [Example 38, N^1-[4-(4-Amino-1H-imidazo[4,5-c]quinolin-1-yl)butyl]-1-naphthamide] | – | 3.33 µM | 0.12 µM
CCCCc1nc2c(N)nc3ccccc3c2n1CCCCNC(=O)c1ccccc1 [Example 6, N^1-[4-(4-Amino-2-butyl-1H-imidazo[4,5-c]quinolin-1-yl)butyl]benzamide] | – | 1.11 µM | 0.12 µM
COCCc1nc2c(N)nc3c(c2n1CCCCNC(=O)c1ccccc1)CCCC3 [Example 172] | – | 1 µM | 0.0001 µM
COCCc1nc2c(N)nc3c(c2n1CCCCNC(=O)c1ccncc1)CCCC3 [Example 173] | – | 1 µM | 0.001 µM
Nc1nc2ccccc2c2c1ncn2CCCCNC(=O)c1ccc(OC(F)(F)F)cc1 [Example 102] | – | > 30 µM | 3.33 µM
Nc1nc2ccccc2c2c1ncn2CCCCNC(=O)CC1CCCC1 [Example 99] | – | 3.33 µM | 0.37 µM
Nc1nc2ccccc2c2c1ncn2CCCCNC(=O)C1(c2ccc(Cl)cc2)CCCC1 [Example 91] | – | > 30 µM | 3.33 µM
COc1ccc(CN(CCCCn2cnc3c(N)nc4ccccc4c32)C(C)=O)cc1 [Example 120] | – | > 30 µM | 0.37 µM
Nc1nc2ccccc2c2c1ncn2CCCCNC(=O)c1cccnc1Cl [Example 97] | – | 3.33 µM | 0.12 µM
CC(=O)N(CCCCn1cnc2c(N)nc3ccccc3c21)Cc1cc(Br)ccc1O [Example 122] | – | > 30 µM | 3.33 µM
COCCc1nc2c(N)nc3ccccc3c2n1CCCCNC(=O)c1ccc(C(C)(C)C)cc1 [Example 156] | – | 1 µM | 0.001 µM
CC(=O)N(CCCCn1cnc2c(N)nc3ccccc3c21)Cc1ccccc1Cl [Example 124] | – | 3.33 µM | 1.11 µM
CC(=O)N(CCCCn1cnc2c(N)nc3ccccc3c21)Cc1ccc(C)cc1C [Example 132] | – | 3.33 µM | 1.11 µM
COCCc1nc2c(N)nc3ccccc3c2n1CCCCNC(=O)[C@H]1CC(=O)N(C)[C@@H]1c1cccnc1 [Example 184, (2S,3S)-N-{4-[4-amino-2-(2-methoxyethyl)-1H-imidazo[4,5-c]quinolin-1-yl]butyl}-1-methyl-5-oxo-2-pyridin-3-ylpyrrolidine-3-carboxamide] | – | 1.11 µM | 0.12 µM
N#CCC(=O)NCCCCn1cnc2c(N)nc3ccccc3c21 [Example 112] | – | > 30 µM | 10 µM
Nc1nc2ccccc2c2c1ncn2CCCNC(=O)c1ccccc1 [Example 11, N^1-[3-(4-Amino-1H-imidazo[4,5-c]quinolin-1-yl)propyl]benzamide Hydrochloride] | – | > 30 µM | 1.11 µM
CN(CCc1ccccn1)Cc1ccc(C(=O)NCCCCn2cnc3c(N)nc4ccccc4c32)cc1 [Example 107] | – | 10 µM | 0.12 µM
